Results as given in patent publication US9049864B2, “Pyridazinone herbicidal compounds” (Syngenta Limited, priority 2012, dated 2015).

What was measured:
Assay in all cases: Post-emergence herbicidal glasshouse test, percentage damage to the plant
Format in all cases: in vivo
[1] = tested on: Amaranthus retoflexus (AMARE)
Procedure: (§1) Seeds of a variety of test species are sown in standard soil in pots:—Solanum nigrum (SOLNI), Amaranthus retoflexus (AMARE), Setaria faberi (SETFA), Alopecurus myosuroides (ALOMY), Echinochloa crus-galli (ECHCG), Ipomoea hederacea (IPOHE). After 8 days cultivation (post-emergence) under controlled conditions in a glasshouse (at 24/16° C., day/night; 14 hours light; 65% humidity), the plants are sprayed with an aqueous spray solution derived from the formulation of the technical active ingredient in acetone/water (50:50) solution containing 0.5% Tween 20 (polyoxyethelyene sorbitan monolaurate, CAS RN 9005-64-5). Compounds are applied at 1000 g/ha. The test plants are then grown in a glasshouse under controlled conditions in a glasshouse (at 24/16° C., day/night; 14 hours light; 65% humidity) and watered twice daily. After 13 days, the test is evaluated for the percentage damage caused to the plant. The biological activities are shown in the following table on a five point scale (5=80-100%; 4=60-79%; 3=40-59%; 2=20-39%; 1=0-19%). A comparative experiment is conducted to compare the biological efficacy of a compound of the present invention with those of WO 2011/045271. The test is performed as outlined above using the following compounds. Three different application rates are employed (250 g/ha, 500 g/ha and 1000 g/ha).

Solanum nigrum (SOLNI) = tested on: Solanum nigrum (SOLNI)
Procedure: as §1

[2] = tested on: Ipomoea hederacea (IPOHE)
Procedure: as §1

[3] = tested on: Alopecurus myosuroides (ALOMY)
Procedure: as §1

[4] = tested on: Echinochloa crus-galli (ECHCG)
Procedure: as §1

Setaria faberi (SETFA) = tested on: Setaria faberi (SETFA)
Procedure: as §1

[5] = comparative experiment, rate 250 g/ha
[6] = comparative experiment, rate 500 g/ha
[7] = comparative experiment, rate 1000 g/ha
[8] = post-emergence, 1000 g/ha, evaluated after 13 days

Structure (SMILES) | POST Application AMARE, percentage damage (five point scale) [1, 8] | POST Application SOLNI, percentage damage (five point scale) (Solanum nigrum (SOLNI); [8]) | POST Application IPOHE, percentage damage (five point scale) [2, 8] | POST Application ALOMY, percentage damage (five point scale) [3, 8] | POST Application ECHCG, percentage damage (five point scale) [4, 8] | POST Application SETFA, percentage damage (five point scale) (Setaria faberi (SETFA); [8]) | further results
CN1N=CC(=O)C(n2nc(Cl)c3ccccc32)C1=O (stereo not drawn) [Compound 1.001, 4-(3-chloroindazol-1-yl)-2-methyl-pyridazine-3,5-dione] | 5 (5=80-100%) | 5 (5=80-100%) | 5 (5=80-100%) | 1 (1=0-19%) | 4 (4=60-79%) | 2 (2=20-39%) | POST Application AMARE, percentage damage (five point scale) [1, 5]: 4 (4=60-79%); POST Application AMARE, percentage damage (five point scale) [1, 6]: 4 (4=60-79%); POST Application AMARE, percentage damage (five point scale) [1, 7]: 4 (4=60-79%); POST Application SOLNI, percentage damage (five point scale) (Solanum nigrum (SOLNI); [5]): 5 (5=80-100%); POST Application SOLNI, percentage damage (five point scale) (Solanum nigrum (SOLNI); [6]): 5 (5=80-100%); POST Application SOLNI, percentage damage (five point scale) (Solanum nigrum (SOLNI); [7]): 5 (5=80-100%); POST Application IPOHE, percentage damage (five point scale) [2, 5]: 5 (5=80-100%); POST Application IPOHE, percentage damage (five point scale) [2, 6]: 5 (5=80-100%); POST Application IPOHE, percentage damage (five point scale) [2, 7]: 5 (5=80-100%); POST Application ALOMY, percentage damage (five point scale) [3, 5]: 2 (2=20-39%); POST Application ALOMY, percentage damage (five point scale) [3, 6]: 2 (2=20-39%); POST Application ALOMY, percentage damage (five point scale) [3, 7]: 2 (2=20-39%); POST Application ECHCG, percentage damage (five point scale) [4, 5]: 2 (2=20-39%); POST Application ECHCG, percentage damage (five point scale) [4, 6]: 3 (3=40-59%); POST Application ECHCG, percentage damage (five point scale) [4, 7]: 3 (3=40-59%); POST Application SETFA, percentage damage (five point scale) (Setaria faberi (SETFA); [5]): 1 (1=0-19%); POST Application SETFA, percentage damage (five point scale) (Setaria faberi (SETFA); [6]): 1 (1=0-19%); POST Application SETFA, percentage damage (five point scale) (Setaria faberi (SETFA); [7]): 3 (3=40-59%)
Cc1nn(C)c(=O)c(-n2c(Cl)c(Cl)c3ccccc32)c1OC(=O)OC(C)C [Compound 3.011] | 5 (5=80-100%) | 5 (5=80-100%) | 5 (5=80-100%) | 1 (1=0-19%) | 4 (4=60-79%) | 2 (2=20-39%) | 
C=CCC1=NN(C)C(=O)C(n2c(Cl)c(Cl)c3ccccc32)C1=O (stereo not drawn) [Compound 2.025] | 2 (2=20-39%) | 5 (5=80-100%) | 5 (5=80-100%) | 1 (1=0-19%) | 2 (2=20-39%) | 2 (2=20-39%) | 
Cc1cccc2ccn(C3C(=O)C=NN(C)C3=O)c12 (stereo not drawn) [Compound 1.008] | 1 (1=0-19%) | 4 (4=60-79%) | 2 (2=20-39%) | 1 (1=0-19%) | 1 (1=0-19%) | 1 (1=0-19%) | 
CC1=NN(C)C(=O)C(n2cc(Cl)c3ccccc32)C1=O (stereo not drawn) [Compound 1.027] | 4 (4=60-79%) | 5 (5=80-100%) | 4 (4=60-79%) | 1 (1=0-19%) | 3 (3=40-59%) | 1 (1=0-19%) | 
COC1=NN(C)C(=O)C(n2c(Cl)c(Cl)c3ccccc32)C1=O (stereo not drawn) [Compound 2.022] | 4 (4=60-79%) | 5 (5=80-100%) | 5 (5=80-100%) | 1 (1=0-19%) | 1 (1=0-19%) | 1 (1=0-19%) | 
CN1N=C(OCC(F)(F)F)C(=O)C(n2c(Cl)c(Cl)c3ccccc32)C1=O (stereo not drawn) [Compound 2.024] | 2 (2=20-39%) | 2 (2=20-39%) | 1 (1=0-19%) | 1 (1=0-19%) | 1 (1=0-19%) | 1 (1=0-19%) | 
CN1N=C(C#N)C(=O)C(n2c(Cl)c(Cl)c3ccccc32)C1=O (stereo not drawn) [Compound 2.001] | 3 (3=40-59%) | 5 (5=80-100%) | 5 (5=80-100%) | 1 (1=0-19%) | 2 (2=20-39%) | 2 (2=20-39%) | 
CCSC1=NN(C)C(=O)C(n2c(Cl)c(Cl)c3ccccc32)C1=O (stereo not drawn) [Compound 2.017] | 4 (4=60-79%) | 3 (3=40-59%) | 1 (1=0-19%) | 1 (1=0-19%) | 2 (2=20-39%) | 1 (1=0-19%) | 
CC1=NN(C)C(=O)C(n2c(C)cc3ccccc32)C1=O (stereo not drawn) [Compound 4.026] | 4 (4=60-79%) | 5 (5=80-100%) | 5 (5=80-100%) | 2 (2=20-39%) | 2 (2=20-39%) | 3 (3=40-59%) | 
CN1N=C(C(F)F)C(=O)C(n2c(Cl)c(Cl)c3ccccc32)C1=O (stereo not drawn) [Compound 2.002] | 5 (5=80-100%) | 5 (5=80-100%) | 5 (5=80-100%) | 1 (1=0-19%) | 1 (1=0-19%) | 1 (1=0-19%) | 
CN(C)C1=NN(C)C(=O)C(n2c(Cl)c(Cl)c3ccccc32)C1=O (stereo not drawn) [Compound 2.021] | 3 (3=40-59%) | 4 (4=60-79%) | 3 (3=40-59%) | 2 (2=20-39%) | 1 (1=0-19%) | 1 (1=0-19%) | 
CC1=NN(C)C(=O)C(n2c(Cl)c(Cl)c3ccc(Cl)cc32)C1=O (stereo not drawn) [Compound 1.020] | 5 (5=80-100%) | 5 (5=80-100%) | 5 (5=80-100%) | 1 (1=0-19%) | 4 (4=60-79%) | 1 (1=0-19%) | 
CN1N=C(OCC(F)F)C(=O)C(n2c(Cl)c(Cl)c3ccccc32)C1=O (stereo not drawn) [Compound 2.020] | 4 (4=60-79%) | 4 (4=60-79%) | 3 (3=40-59%) | 1 (1=0-19%) | 1 (1=0-19%) | 1 (1=0-19%) | 
